# Assay results as given in US12590066B2, “Fused-heterocyclyl-carbonohydrazonoyl dicyanide compounds and use thereof” (KOREA INSTITUTE OF SCIENCE AND TECHNOLOGY, priority 2020, dated 2026).
# What was measured:
# CYP2D6 = biological target: T1, CYP2D6 (Homo sapiens, UniProt P10635); assay: Inhibitory effect on CYP coenzyme activity, human liver microsomes; assay type: in vitro ADME; conditions: 10 μM compound, human liver microsomes 0.25 mg/mL, substrate dextromethorphan, 15 minutes
# T1 construct: human liver microsomes (0.25 mg/mL); from tissue; host or cells: human liver microsomes
# Method in brief: (§1)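 Human liver microsomes (0.25 mg/mL) in 0.1 M phosphate pH 7.4 were preincubated 5 min at 37 °C with a substrate cocktail (50 μM phenacetin, 10 μM diclofenac, 100 μM S-mephenytoin, 5 μM dextromethorphan, 2.5 μM midazolam) and 10 μM compound, then run 15 min with NADPH-generating system. Metabolites quantified by LC-MS/MS (MRM); activity expressed as % of untreated control.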
# CYP2C9 = biological target: T2, CYP2C9 (Homo sapiens, UniProt P11712); assay: as above; assay type: in vitro ADME; conditions: 10 μM compound, human liver microsomes 0.25 mg/mL, substrate diclofenac, 15 minutes
# T2 construct: human liver microsomes (0.25 mg/mL); from tissue; host or cells: human liver microsomes
# Method in brief: as §1
# CYP1A2 = biological target: T3, CYP1A2 (Homo sapiens, UniProt P05177); assay: as above; assay type: in vitro ADME; conditions: 10 μM compound, human liver microsomes 0.25 mg/mL, substrate phenacetin, 15 minutes
# T3 construct: human liver microsomes (0.25 mg/mL); from tissue; host or cells: human liver microsomes
# T3 sequence (P05177 1-516): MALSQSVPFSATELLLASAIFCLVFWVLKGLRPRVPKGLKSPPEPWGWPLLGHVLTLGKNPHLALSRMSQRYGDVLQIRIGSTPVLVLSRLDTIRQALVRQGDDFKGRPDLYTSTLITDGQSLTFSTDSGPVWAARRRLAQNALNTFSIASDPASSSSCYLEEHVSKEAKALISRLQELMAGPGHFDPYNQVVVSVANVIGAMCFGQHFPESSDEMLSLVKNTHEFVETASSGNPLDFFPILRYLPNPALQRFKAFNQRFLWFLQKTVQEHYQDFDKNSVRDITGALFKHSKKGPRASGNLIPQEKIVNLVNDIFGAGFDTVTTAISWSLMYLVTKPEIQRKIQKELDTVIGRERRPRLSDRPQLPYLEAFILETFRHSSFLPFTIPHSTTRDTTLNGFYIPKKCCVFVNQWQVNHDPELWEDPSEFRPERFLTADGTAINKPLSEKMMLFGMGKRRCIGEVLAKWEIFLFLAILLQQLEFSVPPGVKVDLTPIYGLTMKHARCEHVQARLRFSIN
# Method in brief: as §1
# CYP3A4 = biological target: T4, CYP3A4 (Homo sapiens, UniProt P08684); assay: as above; assay type: in vitro ADME; conditions: 10 μM compound, human liver microsomes 0.25 mg/mL, substrate midazolam, 15 minutes
# T4 construct: human liver microsomes (0.25 mg/mL); from tissue; host or cells: human liver microsomes
# Method in brief: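 Compounds, tested at 10 μM, were incubated with human liver microsomes and a substrate cocktail including phenacetin, diclofenac, S-mephenytoin and dextromethorphan in phosphate buffer at pH 7.4 and 37 °C. Results are percent of control CYP activity.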
# [1] = Liver microsome stability; assay type: in vitro ADME; conditions: 1 μM compound, 37° C., 30 minutes, NADPH; for Human (%) amount of substrate remaining after the reaction: human liver microsomes 0.25 mg/mL; for Mouse (%) amount of substrate remaining after the reaction: mouse liver microsomes 0.25 mg/mL; for Rat (%) amount of substrate remaining after the reaction: rat liver microsomes 0.25 mg/mL
# Method in brief: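 Human, dog, rat and mouse liver microsomes (0.25 mg/mL) with 1 μM compound in 0.1 M phosphate buffer pH 7.4, preincubated 5 min at 37° C, then incubated 30 min at 37° C with NADPH-generating system. Reaction stopped with acetonitrile plus internal standard; remaining parent quantified by LC-MS/MS.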
# Tau-BiFC cells = assay: Cell viability (stained nuclei count) in Tau-BiFC cells; assay type: cell-based; conditions: 10 μM compound, 48 hours; Forskolin-only group = 100% cell viability
# Method in brief: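 Tau-BiFC cells co-treated 48 h with 30 μM forskolin and compounds (1, 3, 10 μM screen; 0.01–30 μM dose-response). BiFC fluorescence normalized to forskolin-only (100% aggregation) minus untreated gives aggregation inhibition and IC50; viability as Hoechst-stained nuclei count relative to forskolin-only.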
# T4 sequence (P08684 whole entry): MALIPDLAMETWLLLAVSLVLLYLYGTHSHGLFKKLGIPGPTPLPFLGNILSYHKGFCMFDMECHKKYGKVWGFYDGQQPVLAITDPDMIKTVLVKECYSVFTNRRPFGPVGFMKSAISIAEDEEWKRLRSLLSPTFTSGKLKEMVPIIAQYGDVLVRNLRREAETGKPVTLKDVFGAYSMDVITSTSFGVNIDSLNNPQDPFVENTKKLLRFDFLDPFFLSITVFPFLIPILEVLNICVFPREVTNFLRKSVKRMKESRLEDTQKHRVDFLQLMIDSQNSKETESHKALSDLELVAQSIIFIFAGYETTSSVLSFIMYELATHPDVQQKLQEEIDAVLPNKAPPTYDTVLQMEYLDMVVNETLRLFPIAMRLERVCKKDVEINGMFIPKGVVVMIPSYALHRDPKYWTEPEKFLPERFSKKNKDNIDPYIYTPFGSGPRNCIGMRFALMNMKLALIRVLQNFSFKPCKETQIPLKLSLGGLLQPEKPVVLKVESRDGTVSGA
# T1 sequence (P10635 whole entry): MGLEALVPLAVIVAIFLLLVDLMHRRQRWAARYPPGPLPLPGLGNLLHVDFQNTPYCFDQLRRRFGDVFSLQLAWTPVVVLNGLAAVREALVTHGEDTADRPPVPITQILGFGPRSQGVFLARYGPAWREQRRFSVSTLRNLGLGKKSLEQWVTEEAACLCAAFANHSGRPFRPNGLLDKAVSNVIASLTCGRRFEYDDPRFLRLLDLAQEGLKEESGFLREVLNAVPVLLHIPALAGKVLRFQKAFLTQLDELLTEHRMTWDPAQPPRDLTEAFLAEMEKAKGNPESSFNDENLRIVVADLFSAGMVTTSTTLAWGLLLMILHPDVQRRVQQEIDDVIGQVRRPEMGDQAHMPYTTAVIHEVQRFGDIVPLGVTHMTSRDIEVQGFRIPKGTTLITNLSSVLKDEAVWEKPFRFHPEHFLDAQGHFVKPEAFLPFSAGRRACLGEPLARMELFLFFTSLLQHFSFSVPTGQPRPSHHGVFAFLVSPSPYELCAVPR
# T2 sequence (P11712 whole entry): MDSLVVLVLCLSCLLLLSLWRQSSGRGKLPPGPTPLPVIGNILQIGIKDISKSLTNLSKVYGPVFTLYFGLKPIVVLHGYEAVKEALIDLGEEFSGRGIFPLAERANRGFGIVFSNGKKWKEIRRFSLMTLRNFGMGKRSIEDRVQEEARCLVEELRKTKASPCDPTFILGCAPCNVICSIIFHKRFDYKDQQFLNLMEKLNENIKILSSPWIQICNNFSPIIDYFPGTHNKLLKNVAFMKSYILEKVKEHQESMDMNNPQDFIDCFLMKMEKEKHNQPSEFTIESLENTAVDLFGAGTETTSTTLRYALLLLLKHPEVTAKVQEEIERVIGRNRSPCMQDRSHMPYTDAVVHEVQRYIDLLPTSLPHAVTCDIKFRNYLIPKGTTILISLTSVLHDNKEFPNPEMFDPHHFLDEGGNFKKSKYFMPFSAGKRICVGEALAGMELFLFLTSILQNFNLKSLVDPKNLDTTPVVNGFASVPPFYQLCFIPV
structure (smiles),measurement,setting,value
"CC(C)n1c(=O)n(C(C)C)c2ncc(NN=C(C#N)C#N)cc21 [Compound 34, (1,3-diisopropyl-2-oxo-2,3-dihydro-1H-imidazo[4,5-b]pyridin-6-yl)carbonohydrazonoyl dicyanide]",CYP2D6 coenzyme activity (%) with respect to control group not treated,CYP2D6,99.1%
same,CYP2C9 coenzyme activity (%) with respect to control group not treated,CYP2C9,41.9%
same,CYP1A2 coenzyme activity (%) with respect to control group not treated,CYP1A2,>100%
same,CYP3A4 coenzyme activity (%) with respect to control group not treated,CYP3A4,90.2%
same,Human (%) amount of substrate remaining after the reaction,[1],>100%
same,Mouse (%) amount of substrate remaining after the reaction,[1],86.6%
same,Rat (%) amount of substrate remaining after the reaction,[1],57.5%
same,Cell viability (% @10 μM),Tau-BiFC cells,120%
"CCn1c(=O)n(C)c2ccc(NN=C(C#N)C#N)cc21 [Compound 35, (3-ethyl-1-methyl-2-oxo-2,3-dihydro-1H-benzo[d]imidazol-5-yl)carbonohydrazonoyl dicyanide]",CYP2D6 coenzyme activity (%) with respect to control group not treated,CYP2D6,>100%
same,CYP2C9 coenzyme activity (%) with respect to control group not treated,CYP2C9,72.5%
same,CYP1A2 coenzyme activity (%) with respect to control group not treated,CYP1A2,93.1%
same,CYP3A4 coenzyme activity (%) with respect to control group not treated,CYP3A4,>100%
same,Human (%) amount of substrate remaining after the reaction,[1],98.7%
same,Mouse (%) amount of substrate remaining after the reaction,[1],87.1%
same,Rat (%) amount of substrate remaining after the reaction,[1],86%
same,Cell viability (% @10 μM),Tau-BiFC cells,130%
"CC(C)n1c(=O)n(C)c2ccc(NN=C(C#N)C#N)cc21 [Compound 36, (3-isopropyl-1-methyl-2-oxo-2,3-dihydro-1H-benzo[d]imidazol-5-yl)carbonohydrazonoyl dicyanide]",CYP2D6 coenzyme activity (%) with respect to control group not treated,CYP2D6,>100%
same,CYP2C9 coenzyme activity (%) with respect to control group not treated,CYP2C9,36.6%
same,CYP1A2 coenzyme activity (%) with respect to control group not treated,CYP1A2,93.7%
same,CYP3A4 coenzyme activity (%) with respect to control group not treated,CYP3A4,95.8%
same,Human (%) amount of substrate remaining after the reaction,[1],>100%
same,Mouse (%) amount of substrate remaining after the reaction,[1],89.4%
same,Rat (%) amount of substrate remaining after the reaction,[1],86.4%
same,Cell viability (% @10 μM),Tau-BiFC cells,104%
"Cn1c(=O)n(C(F)F)c2cc(NN=C(C#N)C#N)ccc21 [Compound 37, (3-(difluoromethyl)-1-methyl-2-oxo-2,3-dihydro-1H-benzo[d]imidazol-5-yl)carbonohydrazonoyl dicyanide]",CYP2D6 coenzyme activity (%) with respect to control group not treated,CYP2D6,>100%
same,CYP2C9 coenzyme activity (%) with respect to control group not treated,CYP2C9,29.2%
same,CYP1A2 coenzyme activity (%) with respect to control group not treated,CYP1A2,64.6%
same,CYP3A4 coenzyme activity (%) with respect to control group not treated,CYP3A4,96.7%
same,Human (%) amount of substrate remaining after the reaction,[1],84.9%
same,Mouse (%) amount of substrate remaining after the reaction,[1],75.7%
same,Rat (%) amount of substrate remaining after the reaction,[1],58.5%
same,Cell viability (% @10 μM),Tau-BiFC cells,121%
"CCn1c(=O)n(C)c2cc(NN=C(C#N)C#N)ccc21 [Compound 38, (1-ethyl-3-methyl-2-oxo-2,3-dihydro-1H-benzo[d]imidazol-5-yl)carbonohydrazonoyl dicyanide]",CYP2D6 coenzyme activity (%) with respect to control group not treated,CYP2D6,>100%
same,CYP2C9 coenzyme activity (%) with respect to control group not treated,CYP2C9,92.6%
same,CYP1A2 coenzyme activity (%) with respect to control group not treated,CYP1A2,98.9%
same,CYP3A4 coenzyme activity (%) with respect to control group not treated,CYP3A4,>100%
same,Human (%) amount of substrate remaining after the reaction,[1],95%
same,Mouse (%) amount of substrate remaining after the reaction,[1],81.6%
same,Rat (%) amount of substrate remaining after the reaction,[1],91.8%
same,Cell viability (% @10 μM),Tau-BiFC cells,106%
"CC(C)n1c(=O)n(C2CC2)c2ccc(NN=C(C#N)C#N)cc21 [Compound 42, (1-cyclopropyl-3-isopropyl-2-oxo-2,3-dihydro-1H-benzo[d]imidazol-5-yl)carbonohydrazonoyl dicyanide]",CYP2D6 coenzyme activity (%) with respect to control group not treated,CYP2D6,>100%
same,CYP2C9 coenzyme activity (%) with respect to control group not treated,CYP2C9,59.6%
same,CYP1A2 coenzyme activity (%) with respect to control group not treated,CYP1A2,91.9%
same,CYP3A4 coenzyme activity (%) with respect to control group not treated,CYP3A4,93.5%
same,Human (%) amount of substrate remaining after the reaction,[1],81.7%
same,Mouse (%) amount of substrate remaining after the reaction,[1],63.4%
same,Rat (%) amount of substrate remaining after the reaction,[1],78.7%
same,Cell viability (% @10 μM),Tau-BiFC cells,124%
"CC(C)n1c(=O)n(C(F)F)c2cc(NN=C(C#N)C#N)ccc21 [Compound 43, (3-(difluoromethyl)-1-isopropyl-2-oxo-2,3-dihydro-1H-benzo[d]imidazol-5-yl)carbonohydrazonoyl dicyanide]",CYP2D6 coenzyme activity (%) with respect to control group not treated,CYP2D6,82.2%
same,CYP2C9 coenzyme activity (%) with respect to control group not treated,CYP2C9,14.1%
same,CYP1A2 coenzyme activity (%) with respect to control group not treated,CYP1A2,61.7%
same,CYP3A4 coenzyme activity (%) with respect to control group not treated,CYP3A4,72.6%
same,Human (%) amount of substrate remaining after the reaction,[1],81.5%
same,Mouse (%) amount of substrate remaining after the reaction,[1],58.6%
same,Rat (%) amount of substrate remaining after the reaction,[1],86.2%
same,Cell viability (% @10 μM),Tau-BiFC cells,96%
"CCn1c(=O)n(C)c2cc(NN=C(C#N)C#N)cnc21 [Compound 48, (3-ethyl-1-methyl-2-oxo-2,3-dihydro-1H-imidazo[4,5-b]pyridin-6-yl)carbonohydrazonoyl dicyanide]",CYP2D6 coenzyme activity (%) with respect to control group not treated,CYP2D6,>100%
same,CYP2C9 coenzyme activity (%) with respect to control group not treated,CYP2C9,>100%
same,CYP1A2 coenzyme activity (%) with respect to control group not treated,CYP1A2,>100%
same,CYP3A4 coenzyme activity (%) with respect to control group not treated,CYP3A4,>100%
same,Human (%) amount of substrate remaining after the reaction,[1],96.7%
same,Mouse (%) amount of substrate remaining after the reaction,[1],>100%
same,Rat (%) amount of substrate remaining after the reaction,[1],96.3%
same,Cell viability (% @10 μM),Tau-BiFC cells,143%
"CC(C)n1c(=O)n(C2CC2)c2ncc(NN=C(C#N)C#N)cc21 [Compound 53, (3-cyclopropyl-1-isopropyl-2-oxo-2,3-dihydro-1H-imidazo[4,5-b]pyridin-6-yl)carbonohydrazonoyl dicyanide]",CYP2D6 coenzyme activity (%) with respect to control group not treated,CYP2D6,>100%
same,CYP2C9 coenzyme activity (%) with respect to control group not treated,CYP2C9,75.3%
same,CYP1A2 coenzyme activity (%) with respect to control group not treated,CYP1A2,>100%
same,CYP3A4 coenzyme activity (%) with respect to control group not treated,CYP3A4,97.8%
same,Human (%) amount of substrate remaining after the reaction,[1],84.6%
same,Mouse (%) amount of substrate remaining after the reaction,[1],83.5%
same,Rat (%) amount of substrate remaining after the reaction,[1],82.1%
same,Cell viability (% @10 μM),Tau-BiFC cells,125%
"CCn1c(=O)n(C(C)C)c2ncc(NN=C(C#N)C#N)cc21 [Compound 55, (1-ethyl-3-isopropyl-2-oxo-2,3-dihydro-1H-imidazo[4,5-b]pyridin-6-yl)carbonohydrazonoyl dicyanide]",CYP2D6 coenzyme activity (%) with respect to control group not treated,CYP2D6,85.8%
same,CYP2C9 coenzyme activity (%) with respect to control group not treated,CYP2C9,38.9%
same,CYP1A2 coenzyme activity (%) with respect to control group not treated,CYP1A2,58.4%
same,CYP3A4 coenzyme activity (%) with respect to control group not treated,CYP3A4,78%
same,Human (%) amount of substrate remaining after the reaction,[1],85.5%
same,Mouse (%) amount of substrate remaining after the reaction,[1],87.7%
same,Rat (%) amount of substrate remaining after the reaction,[1],91.8%
same,Cell viability (% @10 μM),Tau-BiFC cells,124%
